In patent publication US9023865B2, “Compounds that are ERK inhibitors” (Merck Sharp & Dohme Corp., priority 2011, dated 2015):
Structures can show the parent of a compound that is named as a salt. Where two headings read alike, the source gives them in different places.

Columns and labels:
[1] = target: Active Human ERK2 (hERK2) (Homo sapiens (Human), UniProt P28482); assay: Active Human ERK2 (hERK2) Activity Assay (IMAP-FP); format: biochemical
Method in brief: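 Reaction contains 0.5 nM activated hERK2, 900 nM unlabeled plus 80 nM labeled peptide and 30 μM ATP, run 60 min. Quenched with IMAP binding beads in buffer with 24 mM NaCl; fluorescence polarization read after 60 min binding equilibration.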

[2] = target: Active Mouse ERK2 (mERK2) (Mus musculus (Mouse), UniProt P63085); assay: Active Mouse ERK2 (mERK2) Activity Assay (IMAP-FP); format: biochemical
Experimental: Active Mouse ERK2 (mERK2) Activity Assay:
Activated ERK2 activity was determined in an IMAP-FP assay (Molecular Devices). […] Phosphorylation reactions were allowed to proceed for 45 minutes and were immediately quenched by the addition of 60 μL IMAP detection beads (1:1000 dilutions) in IMAP binding buffer (Molecular Devices) with 24 mM NaCl. Plates were read on EnVision reader after 60 minutes binding equilibration using Fluorescence Polarization protocol (Perkin Elmer).

[3] = phosphorylated active hERK2, 30 μM ATP, average, read-out: ERK 2 Human average IC50
[4] = phosphorylated active mERK2, 30 uM ATP, read-out: ERK 2 MAPK1 Mouse IC50
[5] = read-out: AERK2 IC50 (Active mouse ERK2 Activity Assay)
[6] = read-out: AERK2 IC50 (Active human ERK2 Activity Assay)

Chain of Active Mouse ERK2 (mERK2) (P63085 whole entry): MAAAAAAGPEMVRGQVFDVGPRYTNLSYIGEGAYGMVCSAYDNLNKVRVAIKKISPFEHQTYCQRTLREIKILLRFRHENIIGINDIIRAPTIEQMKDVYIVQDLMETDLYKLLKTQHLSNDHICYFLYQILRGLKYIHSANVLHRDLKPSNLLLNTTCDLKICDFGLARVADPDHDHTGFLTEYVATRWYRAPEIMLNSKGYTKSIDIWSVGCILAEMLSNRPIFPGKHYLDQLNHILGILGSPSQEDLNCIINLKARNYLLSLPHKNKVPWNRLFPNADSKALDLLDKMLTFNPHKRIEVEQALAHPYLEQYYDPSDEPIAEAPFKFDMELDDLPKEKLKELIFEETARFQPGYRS
Chain of Active Human ERK2 (hERK2) (P28482 whole entry): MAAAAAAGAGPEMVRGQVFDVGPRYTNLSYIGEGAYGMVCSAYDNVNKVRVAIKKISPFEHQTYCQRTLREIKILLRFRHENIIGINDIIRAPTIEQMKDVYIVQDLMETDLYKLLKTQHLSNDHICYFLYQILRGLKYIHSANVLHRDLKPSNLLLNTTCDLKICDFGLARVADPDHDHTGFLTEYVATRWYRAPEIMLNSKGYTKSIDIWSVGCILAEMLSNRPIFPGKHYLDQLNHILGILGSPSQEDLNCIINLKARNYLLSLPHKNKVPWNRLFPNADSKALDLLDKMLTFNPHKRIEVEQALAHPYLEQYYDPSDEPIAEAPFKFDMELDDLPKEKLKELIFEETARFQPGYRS

Compound | IC50 [1, 3] [nM] | IC50 [2, 4] [nM] | further results
Cc1cc(-c2n[nH]c3cc(NC(=O)NCc4ccc(Cl)cc4)ncc23)ccn1 [Example 26, 1-(4-chlorobenzyl)-3-[3-(2-methylpyridin-4-yl)-1H-pyrazolo[4,3-c]pyridin-6-yl]urea] | 0.513 | 0.457 | IC50 [2, 5]: 0.1 to 1.2 nM
Cc1cc(-c2n[nH]c3cc(NC(=O)N[C@H](C)c4ccccc4)ncc23)ccn1 [Example 6, 1-[3-(2-methylpyridin-4-yl)-1H-pyrazolo[4,3-c]pyridin-6-yl]-3-[(1R)-1-phenylethyl]urea] | 0.204 | 0.152 | IC50 [2, 5]: 0.1 to 1.2 nM
COc1cccc(F)c1CN1CCCC(NC(=O)Nc2cc3[nH]nc(-c4ccnc(C)c4)c3cn2)C1 (stereo not shown) [Example 4, 1-[1-(2-fluoro-6-methoxybenzyl)-piperidin-3-yl]-3-[3-(2-methylpyridin-4-yl)-1H-pyrazolo[4,3-c]pyridin-6-yl]urea] | – | 1.12 | IC50 [2, 5]: 0.1 to 1.2 nM
Cc1cc(-c2n[nH]c3cc(NC(N)=O)ncc23)ccn1 [Example 23, 1-(3-(2-methylpyridin-4-yl)-1H-pyrazolo[4,3-c]pyridin-6-yl)urea] | 2 | 2.22 | –
Cc1cc(-c2n[nH]c3cc(NC(=O)N[C@@H](C)c4ccc(F)cc4)ncc23)ccn1 [Example 11, 1-[(1S)-1-(4-fluorophenyl)ethyl]-3-[3-(2-methylpyridin-4-yl)-1H-pyrazolo[4,3-c]pyridin-6-yl]urea] | 0.342 | 0.152 | IC50 [2, 5]: 0.1 to 1.2 nM
Cc1cc(-c2n[nH]c3cc(NC(=O)NCc4nnc(C)o4)ncc23)ccn1 [Example 13] | – | 10.2 | –
Cc1cc(-c2n[nH]c3cc(NC(=O)N[C@@H](CO)c4ccccc4)ncc23)ccn1 [Example 17, 1-[(1R)-2-hydroxy-1-phenylethyl]-3-[3-(2-methylpyridin-4-yl)-1H-pyrazolo[4,3-c]pyridin-6-yl]urea] | – | 108 | –
C[C@@H](NC(=O)Nc1cc2[nH]ncc2cn1)c1ccc(F)cc1 [Example 24, 1-[(1R)-1-(4-fluorophenyl)ethyl]-3-(1H-pyrazolo[4,3-c]pyridin-6-yl)urea] | 836 | 682 | –
Cc1cc(-c2n[nH]c3cc(NC(=O)NCc4cccnc4)ncc23)ccn1 [Example 14, 1-[3-(2-methylpyridin-4-yl)-1H-pyrazolo[4,3-c]pyridin-6-yl]-3-(pyridin-3-ylmethyl)urea] | – | 1.16 | IC50 [2, 5]: 0.1 to 1.2 nM
Cc1cc(-c2n[nH]c3cc(NC(=O)NC4CCCNC4)ncc23)ccn1 (stereo not shown) [Example 1, 3-({[3-(2-methylpyridin-4-yl)-1H-pyrazolo[4,3-c]pyridin-6-yl]carbamoyl}amino)piperidinium trifluoroacetate] | – | 3.13 | –
Cc1cc(-c2n[nH]c3cc(NC(=O)N[C@@H](C)c4ccccc4)ncc23)ccn1 [Example 7, 1-[3-(2-methylpyridin-4-yl)-1H-pyrazolo[4,3-c]pyridin-6-yl]-3-[(1S)-1-phenylethyl]urea] | – | 38.3 | –
C[C@@H](NC(=O)Nc1cc2[nH]nc(C3=CCOCC3)c2cn1)c1ccccc1 [Example 20, 1-[3-(3,6-dihydro-2H-pyran-4-yl)-1H-pyrazolo[4,3-c]pyridin-6-yl]-3-[(1R)-1-phenylethyl]urea] | – | 0.537 | IC50 [2, 5]: 0.1 to 1.2 nM
Cc1cc(-c2n[nH]c3cc(NC(=O)N[C@H](c4ccccc4)C(F)(F)F)ncc23)ccn1 [Example 18, 1-[3-(2-methylpyridin-4-yl)-1H-pyrazolo[4,3-c]pyridin-6-yl]-3-[(1R)-2,2,2-trifluoro-1-phenylethyl]urea] | – | 9.46 | –
COc1cccc(F)c1CN1CCC[C@H](NC(=O)Nc2cc3[nH]nc(-c4ccnc(C)c4)c3cn2)C1 [Example 3, 1-[(3S)-1-(2-fluoro-6-methoxybenzyl)-piperidin-3-yl]-3-[3-(2-methylpyridin-4-yl)-1H-pyrazolo[4,3-c]pyridin-6-yl]urea] | – | 36.6 | –
Cc1cc(-c2n[nH]c3cc(NC(=O)NC(CO)c4ccccc4)ncc23)ccn1 (stereo not shown) [Example 10, 1-(2-hydroxy-1-phenylethyl)-3-[3-(2-methylpyridin-4-yl)-1H-pyrazolo[4,3-c]pyridin-6-yl]urea] | – | 0.215 | IC50 [2, 5]: 0.1 to 1.2 nM
Cc1cc(-c2n[nH]c3cc(NC(=O)N[C@@H](c4ccccc4)C(F)(F)F)ncc23)ccn1 [Example 16, 1-[3-(2-methylpyridin-4-yl)-1H-pyrazolo[4,3-c]pyridin-6-yl]-3-[(1S)-2,2,2-trifluoro-1-phenylethyl]urea] | – | 3.78 | –
Cc1cc(-c2n[nH]c3cc(NC(=O)NCc4ccc(Cl)c(Cl)c4)ncc23)ccn1 [Example 8, 1-(3,4-dichlorobenzyl)-3-[3-(2-methylpyridin-4-yl)-1H-pyrazolo[4,3-c]pyridin-6-yl]urea] | – | 0.516 | IC50 [2, 5]: 0.1 to 1.2 nM
Cc1cc(-c2n[nH]c3cc(NC(=O)NCCc4ccccc4)ncc23)ccn1 [Example 5, 1-[3-(2-methylpyridin-4-yl)-1H-pyrazolo[4,3-c]pyridin-6-yl]-3-(2-phenylethyl)urea] | – | 0.502 | IC50 [2, 5]: 0.1 to 1.2 nM
Cc1cc(-c2n[nH]c3cc(NC(=O)NC(C)c4cccnc4)ncc23)ccn1 (stereo not shown) [Example 49, 1-[3-(2-methylpyridin-4-yl)-1H-pyrazolo[4,3-c]pyridin-6-yl]-3-(1-pyridin-3-ylethyl)urea] | 1.04 | – | IC50 [1, 6]: 0.2 to 1.7 nM
Cc1cc(-c2n[nH]c3cc(NC(=S)NCc4ccccc4)ncc23)ccn1 [Example 94, 6-[(benzylcarbamothioyl)amino]-3-(2-methylpyridin-4-yl)-1H-pyrazolo[4,3-c]pyridin-5-ium trifluoroacetate] | 11.9 | – | –
COCCN(Cc1cccnc1)C(=O)Nc1cc2[nH]nc(-c3ccnc(C)c3)c2cn1 [Example 50, 1-(2-methoxyethyl)-3-[3-(2-methylpyridin-4-yl)-1H-pyrazolo[4,3-c]pyridin-6-yl]-1-(pyridin-3-ylmethyl)urea] | 899 | – | –
CCOCCNC(=O)Nc1cc2[nH]nc(-c3ccc(F)cc3)c2cn1 [Example 616] | 0.61 | – | –

Compound | IC50 [1, 3] [nM] | IC50 [2, 4] [nM] | further results
CC(F)(F)c1n[nH]c2cc(NC(=O)NCc3ccc(F)cc3)ncc12 [Example 668] | 647 | – | –
CCCNC(=O)Nc1cc2[nH]nc(-c3ccnc(C)c3)c2cn1 [Example 241] | 2.73 | – | –
Cc1cc(-c2n[nH]c3cc(NC(=O)NC4CC(=O)Nc5ccc(F)cc54)ncc23)ccn1 (stereo not shown) [Example 396] | 8.46 | – | –
Cc1cc(-c2n[nH]c3cc(NC(=O)N[C@H](C)c4ccc(F)c(Cl)c4)ncc23)ccn1 [Example 69, 1-[(1R)-1-(3-chloro-4-fluorophenyl)ethyl]-3-[3-(2-methylpyridin-4-yl)-1H-pyrazolo[4,3-c]pyridin-6-yl]urea] | 0.432 | – | IC50 [1, 6]: 0.2 to 1.7 nM
C[C@@H](NC(=O)Nc1cc2[nH]nc(C(=O)NCC3(O)CC3)c2cn1)c1ccccc1 [Example 124] | 6.38 | – | –
Cc1cc(-c2n[nH]c3cc(NC(=O)NCc4nnc(-c5ccccc5)[nH]4)ncc23)ccn1 [Example 397] | 48.1 | – | –
COCC(NC(=O)Nc1cc2[nH]nc(-c3ccnc(C)c3)c2cn1)c1ccc(C(F)(F)F)cn1 (stereo not shown) [Example 240] | 24.2 | – | –
C[C@@H](NC(=O)Nc1cc2[nH]nc(-c3cnc(-n4cccn4)nc3)c2cn1)c1ccccc1 [Example 291] | 4.44 | – | –
Cc1cc(-c2n[nH]c3cc(NC(=O)N[C@@H]4CCOc5cc(C#N)ccc54)ncc23)ccn1 [Example 266] | 70.6 | – | –
CC(C)Oc1ccc(-c2n[nH]c3cc(NC(=O)N[C@H](C)c4ccccc4)ncc23)cn1 [Example 28, 1-{3-[6-(1-methylethoxy)pyridin-3-yl]-1H-pyrazolo[4,3-c]pyridin-6-yl}-3-[(1R)-1-phenylethyl]urea] | 3.63 | – | –
C[C@@H](NC(=O)Nc1cc2[nH]nc(-c3ccc(C#N)cc3)c2cn1)c1ccccc1 [Example 66, 1-[3-(4-cyanophenyl)-1H-pyrazolo[4,3-c]pyridin-6-yl]-3-[(1R)-1-phenylethyl]urea] | 1.06 | – | IC50 [1, 6]: 0.2 to 1.7 nM
C[C@@H](NC(=O)Nc1cc2[nH]nc(-c3cnc(O)nc3)c2cn1)c1ccccc1 [Example 290] | 0.366 | – | –
COC[C@@H](NC(=O)Nc1cc2[nH]nc(-c3ccnc(C)c3)c2cn1)c1cc(F)ccn1 [Example 169] | 7.33 | – | –
CCC(C)C(NC(=O)Nc1cc2[nH]nc(-c3ccnc(C)c3)c2cn1)c1ccc(Cl)cc1 (stereo not shown) [Example 404] | 11.1 | – | –
CN1CCOC(CNC(=O)Nc2cc3[nH]nc(-c4ccc(F)cc4)c3cn2)C1 (stereo not shown) [Example 226] | 1.58 | – | –
C[C@@H](NC(=O)Nc1cc2[nH]nc(C3CCCC3)c2cn1)c1ccccc1 [Example 653] | 4.16 | – | –
Cc1cc(-c2n[nH]c3cc(NC(=O)NC4CCOc5ccccc54)ncc23)ccn1 (stereo not shown) [Example 532] | 3.52 | – | –
Cc1cc(-c2n[nH]c3cc(NC(=O)NC(CN)c4ccc(F)cc4)ncc23)ccn1 (stereo not shown) [Example 522] | 0.357 | – | –
Cc1cc(-c2n[nH]c3cc(NC(=O)NC(C)c4ncccc4C)ncc23)ccn1 (stereo not shown) [Example 349] | 6.57 | – | –
CCOC[C@@H](NC(=O)Nc1cc2[nH]nc(C(F)F)c2cn1)c1ccccc1 [Example 692] | 12 | – | –
Cc1cc(-c2n[nH]c3cc(NC(=O)N(C)Cc4cccnc4)ncc23)ccn1 [Example 46, 1-methyl-3-[3-(2-methylpyridin-4-yl)-1H-pyrazolo[4,3-c]pyridin-6-yl]-1-(pyridin-3-ylmethyl)urea] | 763 | – | –
COC[C@@H](NC(=O)Nc1cc2[nH]nc(-c3ccc4nn(C)cc4c3)c2cn1)c1ccccc1 [Example 613] | 0.297 | – | –
